{
  "source": "patent US20070092969A1",
  "about": "“Integrator system and method for rapidly determining effectiveness of a germicidal treatment” (priority 2005, published 2007)",
  "system": "biological indicators",
  "conditions": "for Biological Indicator Results: STERRAD 50, 6 minutes contact, plasma 400 watts",
  "experimental": "The biological indicator is placed into the sterilizer with the equipment to be sterilized. At the end of the sterilization process, the biological indicator is removed from the sterilizer, and the carrier is immersed in a sterile culture medium. The culture medium and carrier are incubated for a predetermined time at an appropriate temperature. At the end of the incubation period, it is determined whether any microorganisms have grown in the growth medium. If there is no growth of microorganisms in the growth medium, it is assumed that the equipment in the sterilizer has been properly sterilized. If microorganism growth is observed, the sterilization process was not effective, and the articles in the sterilizer are rejected for use. The growth of microorganisms is determined through a signal such as the generation of turbidity or a color change in a pH indicator due to a pH change from byproducts of cell growth in the medium. Biological indicators are described, for example, in U.S. Pat. Nos. 5,552,320 and 6,436,659, both of which are incorporated herein by reference in their entirety.\nA series of integrators was prepared by contacting paper disks with an aqueous solution of arginine. The integrators were placed in a STERRAD® 50 sterilizer with a load of equipment to be sterilized and several biological indicators. The paper disks are absorbing substrates.\nThe sterilizer was evacuated to 0.8 torr. Plasma was produced in the chamber for 15 minutes to condition the load. The sterilizer was evacuated further to 0.4 torr, and hydrogen peroxide was injected and contacted with the load, integrators, and biological indicators for 6 minutes.\nThe sterilizer was vented with air for 2 minutes. The sterilizer was evacuated again to 0.5 torr, and plasma was produced for an additional 2 minutes. The plasma power was 400 watts for both plasma exposures.",
  "note": "Read-outs that look alike come from different tables or passages of the source.",
  "data": [
    {"smiles": "OO", "note": "[Hydrogen Peroxide, hydrogen peroxide]", "values": [
      {"measurement": "Biological indicator (BI) result", "setting": "Hydrogen peroxide injection of 300 μL in the STERRAD 50 sterilizer", "result": "negative"},
      {"measurement": "Biological Indicator Results", "setting": "Hydrogen peroxide injection volume 100 μL", "result": 100, "unit": "% positive"},
      {"measurement": "Biological Indicator Results", "setting": "Hydrogen peroxide injection volume 250 μL", "result": 40, "unit": "% positive"},
      {"measurement": "Biological Indicator Results", "setting": "Hydrogen peroxide injection volume 400 μL", "result": 0, "unit": "% positive"},
      {"measurement": "Biological Indicator Results", "setting": "Hydrogen peroxide injection volume 500 μL", "result": 0, "unit": "% positive"}
    ]}
  ]
}
